Conditions: Liquid, Capillary tube (Ostwald / Ubbelohde) method

C1CCCCC1 [cyclohexane]
Conditions | viscosity [mPa·s]
303.1 K, 2930 kPa | 0.852
305.1 K, 960 kPa | 0.801
305.2 K, 140 kPa | 0.796
305.2 K, 1960 kPa | 0.819
305.2 K, 3940 kPa | 0.839
313.8 K, 2920 kPa | 0.721
323.7 K, 150 kPa | 0.601
323.7 K, 1990 kPa | 0.614
323.7 K, 4000 kPa | 0.631
324 K, 1020 kPa | 0.616
348.9 K, 140 kPa | 0.432
348.9 K, 990 kPa | 0.44
348.9 K, 2080 kPa | 0.445
348.9 K, 3030 kPa | 0.451
348.9 K, 3930 kPa | 0.449
373.7 K, 970 kPa | 0.331
373.7 K, 2020 kPa | 0.336
373.7 K, 2930 kPa | 0.34
373.7 K, 3960 kPa | 0.346
398.1 K, 2000 kPa | 0.262
398.1 K, 4010 kPa | 0.27
398.2 K, 960 kPa | 0.258
398.2 K, 2940 kPa | 0.266
422.4 K, 960 kPa | 0.204
422.5 K, 1970 kPa | 0.209
422.5 K, 2960 kPa | 0.214
422.5 K, 3960 kPa | 0.216
447.5 K, 1010 kPa | 0.165
447.6 K, 2040 kPa | 0.165
447.7 K, 3010 kPa | 0.17
447.7 K, 4000 kPa | 0.174
473.3 K, 3000 kPa | 0.138
473.4 K, 1930 kPa | 0.131
473.4 K, 3930 kPa | 0.139
497.9 K, 3050 kPa | 0.106
498.1 K, 3980 kPa | 0.11
498.2 K, 3020 kPa | 0.106
498.3 K, 4020 kPa | 0.11
523 K, 3050 kPa | 0.0791
523 K, 3970 kPa | 0.0856

CCCCCCCCCC [decane]
Conditions | viscosity [mPa·s]
303.1 K, 3970 kPa | 0.828
303.2 K, 960 kPa | 0.8
303.2 K, 3010 kPa | 0.814
303.3 K, 150 kPa | 0.788
303.3 K, 2000 kPa | 0.808
323.7 K, 1120 kPa | 0.617
323.7 K, 1990 kPa | 0.628
323.7 K, 3010 kPa | 0.625
323.8 K, 140 kPa | 0.606
323.8 K, 3960 kPa | 0.631
348.9 K, 140 kPa | 0.459
348.9 K, 1050 kPa | 0.465
348.9 K, 2090 kPa | 0.469
348.9 K, 2930 kPa | 0.475
348.9 K, 3950 kPa | 0.481
373.7 K, 130 kPa | 0.365
373.7 K, 960 kPa | 0.368
373.7 K, 2040 kPa | 0.373
373.7 K, 2890 kPa | 0.376
373.7 K, 3960 kPa | 0.381
398.1 K, 3940 kPa | 0.312
398.2 K, 140 kPa | 0.295
398.2 K, 990 kPa | 0.299
398.2 K, 2030 kPa | 0.304
398.2 K, 2910 kPa | 0.309
423.4 K, 2960 kPa | 0.254
423.4 K, 3940 kPa | 0.258
423.5 K, 950 kPa | 0.247
423.5 K, 1060 kPa | 0.246
423.5 K, 2110 kPa | 0.251
447.7 K, 1060 kPa | 0.206
447.7 K, 1990 kPa | 0.209
447.7 K, 2960 kPa | 0.212
447.7 K, 3990 kPa | 0.216
473.4 K, 2150 kPa | 0.174
473.4 K, 2920 kPa | 0.177
473.4 K, 3990 kPa | 0.18
498.2 K, 3890 kPa | 0.152
498.3 K, 2090 kPa | 0.146
498.3 K, 3060 kPa | 0.15
523 K, 3970 kPa | 0.129
523.1 K, 1060 kPa | 0.118
523.1 K, 1940 kPa | 0.122
523.1 K, 3000 kPa | 0.126
547.9 K, 1070 kPa | 0.0957
547.9 K, 1980 kPa | 0.1
547.9 K, 2940 kPa | 0.105
547.9 K, 4000 kPa | 0.108
573.6 K, 1930 kPa | 0.0796
573.7 K, 2970 kPa | 0.0855
573.8 K, 4030 kPa | 0.091
598.4 K, 4020 kPa | 0.0745
598.5 K, 2090 kPa | 0.0619
598.5 K, 2980 kPa | 0.0696

From the NIST ThermoML archive (doi:10.1021/acs.jced.5b00270)
